Tests used:
corn plants = experiment: Vigor rating of corn plants at 12 DAP before infestation (indication of phytotoxicity); type: in vivo; conditions: rating 1=extremely low vigor, 10=highest
Protocol: (§1) A lambda-cyhalothrin seed treatment formulation was prepared by diluting the WARRIOR® T insecticide (Zeneca Ag Products, Wilmington, Del.), which contains 11.4% lambda-cyhalothrin as the active ingredient, into water as a carrier. This formulation was applied for one minute at room temperature to twenty-five grams of Pioneer corn seed (Cultivar PN3394) in a rotostatic seed treater at a rate of 125 g, 250 g or 500 g active ingredient (Al) to 100 kg seed. The treated seeds were allowed to sit uncapped for four to twenty-four hours before planting.
(§2) Treated and untreated seeds (Pioneer hybrid PN3394) were planted in a soil mix consisting of Dupo silt loam, 30% Perlite, 20% coarse sand (WB-10 grade) in six groups of tubs (20 in. L×15 in. W×8 in. D). Twelve seeds were planted per tub and three tubs were planted for each treatment regimen. Soil applications of FORCE® 3GR, which contains 3% tefluthrin granule as the active ingredient, were used for two sets of tubs containing untreated seeds. The FORCE 3GR was applied either in-furrow or incorporated into a 5 inch band on the soil surface at the time of planting. The tubs were overhead irrigated until the plants were infested with black cutworm larvae.
At twelve days after planting (DAP) but before infestation, the overall health of each plant was rated by looking at emergence, height and appearance. This vigor rating gives an indication of any phytotoxicity from the seed or soil treatment. A rating of 1 indicates extremely low vigor while 10 is the highest vigor rating.

black cutworm larvae = experiment: Black cutworm feeding damage on corn grown from treated seed or in treated soil (Reference Example 1); type: in vivo; conditions: for Plant Defol. 3 DAI / Plant Defol. 7 DAI / Plant Defol. 10 DAI: rating 1=no damage, 10=complete defoliation
Protocol: as §1, §2
The rate of application for the FORCE 3GR was reported in units of grams of the active ingredient per hectare (g/ha), while the rate of application of the WARRIOR T to the seeds was reported in units of grams of the active ingredient per 100 kilograms of the seeds (g/100 kg). Although the conversion of one of these units to the other will vary somewhat according to the type of seed that is being used, the size and weight of the seed, and the density of planting that is used—among other things—an approximate conversion for corn seed can be carried out as follows. Assuming a seed application rate of lambda cyhalothrin of, for example, 125 g/100 kg of seed and a planting density of 15 lbs seed/ac, about 14.7 acres can be planted with 100 kg of the seed. This is an effective application rate of about 8.5 g of lambda cyhalthrin per acre. At 2.47 ac/ha, the seed treatment level of 125 g/100 kg is approximately equivalent to a surface banding treatment at about 21 g/ha.
The corn plants were infested at 12 DAP, which corresponds to late growth stage V1 by placing two black cutworm larvae at ¾ instar on the soil surface near the base of the plant. Plants were rated 3, 7 and 10 days after infestation (DAI) for the number of cut plants, as well as damage from leaf feeding. The percent stand reduction due to plant cutting was calculated by dividing the number of cut plants into the number of plants present at infestation. The foliar feeding injury was evaluated using a rating scale of 1=no damage and 10=complete defoliation.

With Cc1c(F)c(F)c(COC(=O)[C@@H]2[C@H](/C=C(\Cl)C(F)(F)F)C2(C)C)c(F)c1F (racemic) [Tefluthrin, (2,3,5,6-tetrafluoro-4-methylphenyl)-methyl-(1 alpha, 3 alpha)-(Z)-(±)-3-(2-chloro-3,3,3-trifluoro-1-propenyl)-2,2-dimethylcyclopropanecarboxylate] the “Vigor at 12 DAP” value (corn plants; soil granule (FORCE 3GR) banded 30 g/ha) was 8.7, the “Vigor at 12 DAP” value (corn plants; soil granule (FORCE 3GR) in-furrow 30 g/ha) was 9.0 and the “% Stand Reduct'n 3 DAI” value (black cutworm larvae; soil granule banded 30 g/ha) was 0.0%. For the same compound, the “Plant Defol. 3 DAI” value (black cutworm larvae; soil granule banded 30 g/ha) was 1.7, the “% Stand Reduct'n 7 DAI” value (black cutworm larvae; soil granule banded 30 g/ha) was 0.0% and the “Plant Defol. 7 DAI” value (black cutworm larvae; soil granule banded 30 g/ha) was 1.7. The “% Stand Reduct'n 10 DAI” value (black cutworm larvae; soil granule banded 30 g/ha) was 0.0%, the “Plant Defol. 10 DAI” value (black cutworm larvae; soil granule banded 30 g/ha) was 0.3 and the “% Stand Reduct'n 3 DAI” value (black cutworm larvae; soil granule in-furrow 30 g/ha) was 33.9%. The “Plant Defol. 3 DAI” value (black cutworm larvae; soil granule in-furrow 30 g/ha) was 5.0, the “% Stand Reduct'n 7 DAI” value (black cutworm larvae; soil granule in-furrow 30 g/ha) was 48.0% and the “Plant Defol. 7 DAI” value (black cutworm larvae; soil granule in-furrow 30 g/ha) was 6.0. The “% Stand Reduct'n 10 DAI” value (black cutworm larvae; soil granule in-furrow 30 g/ha) was 48.0% and the “Plant Defol. 10 DAI” value (black cutworm larvae; soil granule in-furrow 30 g/ha) was 5.3.

For CC1(C)[C@H](C(=O)O[C@H](C#N)c2cccc(Oc3ccccc3)c2)[C@@H]1/C=C(\Cl)C(F)(F)F [λ-cyhalothrin, [1 alpha (s), 3 alpha(z)]-cyano(3-phenoxyphenyl) methyl-3-(2-chloro-3,3,3-trifluoro-1-propenyl)-2,2-dimethylcyclopropane carboxylate], the “Vigor at 12 DAP” value (corn plants; seed treatment 125 g/100 kg) was 9.0, the “Vigor at 12 DAP” value (corn plants; seed treatment 250 g/100 kg) was 8.3 and the “Vigor at 12 DAP” value (corn plants; seed treatment 500 g/100 kg) was 8.3. The “% Stand Reduct'n 3 DAI” value (black cutworm larvae; seed treatment 125 g/100 kg) was 13.9%, the “Plant Defol. 3 DAI” value (black cutworm larvae; seed treatment 125 g/100 kg) was 4.3 and the “% Stand Reduct'n 7 DAI” value (black cutworm larvae; seed treatment 125 g/100 kg) was 16.7%. The “Plant Defol. 7 DAI” value (black cutworm larvae; seed treatment 125 g/100 kg) was 5.0, the “% Stand Reduct'n 10 DAI” value (black cutworm larvae; seed treatment 125 g/100 kg) was 19.4% and the “Plant Defol. 10 DAI” value (black cutworm larvae; seed treatment 125 g/100 kg) was 3.3. The “% Stand Reduct'n 3 DAI” value (black cutworm larvae; seed treatment 250 g/100 kg) was 3.0%, the “Plant Defol. 3 DAI” value (black cutworm larvae; seed treatment 250 g/100 kg) was 3.7 and the “% Stand Reduct'n 7 DAI” value (black cutworm larvae; seed treatment 250 g/100 kg) was 3.0%. The “% Stand Reduct'n 7 DAI” value (black cutworm larvae; seed treatment 250 g/100 kg, listed as lambda-cyhalothrin) was 3%, the “Plant Defol. 7 DAI” value (black cutworm larvae; seed treatment 250 g/100 kg) was 2.7 and the “% Stand Reduct'n 10 DAI” value (black cutworm larvae; seed treatment 250 g/100 kg) was 3.0%. The “Plant Defol. 10 DAI” value (black cutworm larvae; seed treatment 250 g/100 kg) was 1.7, the “% Stand Reduct'n 3 DAI” value (black cutworm larvae; seed treatment 500 g/100 kg) was 0.0% and the “Plant Defol. 3 DAI” value (black cutworm larvae; seed treatment 500 g/100 kg) was 2.0. For the same compound, the “% Stand Reduct'n 7 DAI” value (black cutworm larvae; seed treatment 500 g/100 kg) was 0.0%, the “% Stand Reduct'n 7 DAI” value (black cutworm larvae; seed treatment 500 g/100 kg, listed as lambda-cyhalothrin) was 0% and the “Plant Defol. 7 DAI” value (black cutworm larvae; seed treatment 500 g/100 kg) was 2.3. The “% Stand Reduct'n 10 DAI” value (black cutworm larvae; seed treatment 500 g/100 kg) was 0.0% and the “Plant Defol. 10 DAI” value (black cutworm larvae; seed treatment 500 g/100 kg) was 1.0.
